# Measurements reported in article PMC6700816, “A novel starch-binding laccase from the wheat pathogen Zymoseptoria tritici highlights the functional diversity of ascomycete laccases” (BMC Biotechnology, 2019).
# Molecular target: T1, ZtrLac1A (Zymoseptoria tritici, UniProt F9XCG9)
# T1 construct: gene MYCGRDRAFT_109666; mature protein residues 46-723, native signal peptide removed; catalytic module (556 residues) plus linker plus CBM20; secreted by Pichia pastoris X-33 (pPICZalphaA); N-glycosylated; 79 kDa calculated, 93 kDa on SDS-PAGE; EC 1.10.3.2
# T1 sequence (F9XCG9 46-723): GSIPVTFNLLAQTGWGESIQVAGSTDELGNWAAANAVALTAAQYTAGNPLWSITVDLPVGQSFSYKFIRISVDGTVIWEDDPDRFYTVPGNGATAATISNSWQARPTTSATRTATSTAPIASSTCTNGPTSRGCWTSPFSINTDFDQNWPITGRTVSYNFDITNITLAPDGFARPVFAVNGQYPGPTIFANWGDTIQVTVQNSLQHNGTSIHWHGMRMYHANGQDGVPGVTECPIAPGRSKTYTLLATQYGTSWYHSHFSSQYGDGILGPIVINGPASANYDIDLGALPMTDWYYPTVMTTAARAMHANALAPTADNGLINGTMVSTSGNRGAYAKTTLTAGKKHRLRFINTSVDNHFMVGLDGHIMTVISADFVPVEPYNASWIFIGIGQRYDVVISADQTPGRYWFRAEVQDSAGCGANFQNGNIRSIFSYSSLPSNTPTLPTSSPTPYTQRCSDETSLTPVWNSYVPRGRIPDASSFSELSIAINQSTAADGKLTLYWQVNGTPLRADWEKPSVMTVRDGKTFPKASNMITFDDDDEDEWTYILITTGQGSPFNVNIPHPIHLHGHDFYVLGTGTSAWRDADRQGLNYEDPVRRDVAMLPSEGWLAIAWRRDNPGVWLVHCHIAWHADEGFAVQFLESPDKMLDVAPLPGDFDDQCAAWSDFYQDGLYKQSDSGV
# Test: isothermal titration calorimetry, one-site model
# Conditions: 20 mM sodium acetate, pH 5.5, 25 °C; starch mimic, CBM20 starch-binding module, not the laccase active site
# Text: isothermal titration calorimetry, one-site model on ZtrLac1A | ZtrLac1A binds to β-CD with an association constant of Ka
compound,measurement,value
"OC[C@H]1O[C@@H]2O[C@H]3[C@H](O)[C@@H](O)[C@@H](O[C@H]4[C@H](O)[C@@H](O)[C@@H](O[C@H]5[C@H](O)[C@@H](O)[C@@H](O[C@H]6[C@H](O)[C@@H](O)[C@@H](O[C@H]7[C@H](O)[C@@H](O)[C@@H](O[C@H]8[C@H](O)[C@@H](O)[C@@H](O[C@H]1[C@H](O)[C@H]2O)O[C@@H]8CO)O[C@@H]7CO)O[C@@H]6CO)O[C@@H]5CO)O[C@@H]4CO)O[C@@H]3CO [β-CD, β-cyclodextrin]",Kd,32.6 ± 2.4 µM
